Measurements: patent US20240034761A1, “REGENERATION OF MAMMALIAN TISSUES USING SYNTHETIC IMMODULINS” (priority 2022, published 2024)
Marks after values point to notes of the source that are not given here. Square brackets hold non-standard residues; d marks the D form. Ends that are not written are not given here. Peptide text beside a SMILES is read from it.

Experiments:
[1] = test system: THP1-Dual monocyte reporter cell line; experiment: Adjuvant effect of helper molecules on immX3 peptide potency in THP1-Dual assay; assay type: cell-based, human
Procedure: (§1) Mammalian cell differentiation assays employed the THP1-Dual monocyte reporter cell line (Invivogen Inc, San Diego, CA) seeded at 2×10e5 cells per well in 96-well plates and cultured at 37 degrees C. in RPMI-1640 growth medium plus 10% fetal bovine serum and 1% penicillin/streptomycin. Cells were subsequently treated for 24 hours with 100 ng/ml Phorbol 12-myristate 13-acetate (PMA protocol; Cayman Chemical Company, Ann Arbor, MI). Peptide (0.33 uM or 0.66 uM, as indicated) was then added, and incubation continued for an additional 24 hours. Culture supernatants were assayed for CCL22. Plates with adherent cells were washed with PBS and assayed for immunoreactivity of surface markers such as CD169, Clec9a or Clec12a using fuorescent tag- or biotin-labeled anti-human antibodies purchased from Miltenyi Biotec (Auburn, CA) and the secondary detection reagent recommended by the manufacturer.
The THP1-Dual cell differentiation assay was carried out as described above in Example 2, using immX3 peptide (330 nM) in all samples plus the indicated helper or inhibitor molecule. Molecules were purched from Cayman Chemical Company (Ann Arbor, MI) or Sigma Chemical Company (St. Louis, MO). AU=arbitrary ELISA units. **p<0.01.

[2] = test system: THP1-Dual monocyte reporter cell line; experiment: THP1-Dual myeloid cell differentiation assay (PMA protocol); assay type: cell-based, human; conditions: PMA 24 h, then peptide 0.33 uM or 0.66 uM 24 h; for CD169+ (AU): relative to immX3AVD = 100; for CCL22: culture supernatant
Procedure: as §1

[3] = PIP-binding membrane assay (Membrane Lipid Strips); set-up: key: —: −−− no binding; +++ strong binding; conditions: 400 ng peptide
Procedure: N-terminally biotinylated versions of the peptides listed below were used in various assays listed in the examples. For the two types of phosphatidylinositon phosphate (PIP)-binding assays, imm1-imm6 peptides were used.
In the PIP-binding membrane assay, 400 ng of each peptide was bound to Membrane Lipid Strips (Catalog # P-6002, Echelon Biosciences, Salt Lake City, UT) and developed according to the manufacturer's instructions. Binding to PIPs was as follows (−−− no binding; +++ strong binding): […]

[4] = test system: C2C12 myoblastic cell line; experiment: C2C12 myoblast differentiation, creatine kinase; assay type: cell-based; conditions: 0.66 uM peptide, 96 hours; helper none; relative to immX3AVD = 100
Procedure: Differentiation assays employed the C2C12 myoblastic cell line (ATCC, Manassas, VA) seeded at 2×10e5 cells per well in 96-well plates and cultured at 37 degrees C. in DMEM growth medium plus 10% fetal bovine serum and 1% penicillin/streptomycin. For differentiation, 10% fetal bovine serum was replaced with 2% horse serum. 0.66 uM peptide was then added, and incubation continued for an additional 96 hours. Plates with adherent cells were washed with PBS, lysed with Lytic-M buffer (Sigma Chemical Company, St. Louis, MO) and the lysates were assayed for creatine kinase using a kit purchased from Bioassay Systems (Cat. #ECPK-100, Hayward, CA). Effects were visually confirmed with microscopy tracking myotube formation. Results were expressed as units per milliliter relative to the control immX3AVD peptide, and p values were also calculated and shown relative to control immX3AVD peptide (** p<0.05 versus immX3AVD control; avg±SD).

[5] = immX3 peptide 330 nM plus helper at 15 uM
[6] = immX3 peptide 330 nM plus helper at 2 uM
[7] = immX3 peptide 330 nM plus helper at 1 mM
[8] = immX3 peptide 330 nM plus helper at 0.1 ug/ml
[9] = immX3 peptide 330 nM plus helper at 1 ug/ml

Nc1nc2c(ncn2[C@@H]2O[C@@H]3COP(=O)(O)O[C@H]4[C@@H](O)[C@H](n5cnc6c(N)ncnc65)O[C@@H]4COP(=O)(O)O[C@@H]2[C@@H]3O)c(=O)[nH]1 [2′3′-cGAMP]
CD169 (AU) [1, 5]: 168.5 ± 10.9** AU

Sc1ncnc2nc[nH]c12 [6-mercaptopurine]
CD169 (AU) [1, 6]: 104.9 ± 4.0 AU

C=C(c1ccc(C(=O)O)cc1)c1cc2c(cc1C)C(C)(C)CCC2(C)C [Bexarotene]
CD169 (AU) [1, 6]: 96.9 ± 6.8 AU

Oc1ccc(C(c2c[nH]c3ccccc23)c2c[nH]c3ccccc23)cc1 [C-DIM8]
CD169 (AU) [1, 6]: 91.0 ± 24.8 AU

Clc1ccc(C(c2c[nH]c3ccccc23)c2c[nH]c3ccccc23)cc1 [C-DIM12]
CD169 (AU) [1, 6]: 119.0 ± 3.7** AU

C=C1/C(=C\C=C2/CCC[C@]3(C)[C@@H]([C@H](C)CCCC(C)(C)O)CC[C@@H]23)C[C@@H](O)C[C@@H]1O [Calcitriol]
CD169 (AU) [1, 6]: 102.0 ± 11.3 AU

O=C1CCc2cc(OCCCCc3nnnn3C3CCCCC3)ccc2N1 [Cilostazol]
CD169 (AU) [1, 6]: 99.4 ± 27.7 AU

C[C@H]1C[C@H]2[C@@H]3CCC4=CC(=O)C=C[C@]4(C)[C@@]3(F)[C@@H](O)C[C@]2(C)[C@@]1(O)C(=O)CCl [Clobetasol]
CD169 (AU) [1, 6]: 98.5 ± 5.5 AU

Nc1nc2c(ncn2[C@@H]2O[C@@H]3COP(=O)(O)O[C@H]4[C@@H](O)[C@H](n5cnc6c(=O)[nH]c(N)nc65)O[C@@H]4COP(=O)(O)O[C@H]3[C@H]2O)c(=O)[nH]1 [Cyclic-di-GMP]
CD169 (AU) [1, 5]: 142.9 ± 9.7** AU

CCCCCCCC(=O)c1c(O)cc(O)cc1CC(=O)OCC [Cytosporone B]
CD169 (AU) [1, 6]: 120.3 ± 6.4** AU

O=C(CO)[C@@H](O)[C@@H](O)[C@H](O)[C@H](O)CO [D-mannoheptulose]
CD169 (AU) ([1]; immX3 peptide 330 nM plus helper at 50 uM): 140.8 ± 12.4** AU

OC[C@H]1O[C@H](OC[C@H]2O[C@H](O[C@]3(CO)O[C@H](CO)[C@@H](O)[C@@H]3O)[C@H](O)[C@@H](O)[C@@H]2O)[C@H](O)[C@@H](O)[C@H]1O [D-raffinose]
CD169 (AU) [1, 7]: 111.9 ± 4.0** AU

CN1C[C@H](C(=O)N[C@]2(C)O[C@@]3(O)[C@@H]4CCCN4C(=O)[C@H](Cc4ccccc4)N3C2=O)C[C@@H]2c3cccc4[nH]cc(c34)C[C@H]21 [Dihydroergotamine]
CD169 (AU) [1, 6]: 170.3 ± 20.7** AU

O=C(O)CC1CC(c2ccccc2)=NO1 (stereo not shown) [GIT27]
CD169 (AU) [1, 6]: 166.5 ± 34.1** AU

CN1c2ccc([N+](=O)[O-])cc2N=C(c2ccc(C(=O)O)cc2)c2cc3c(cc21)C(C)(C)CCC3(C)C [HX531]
CD169 (AU) [1, 6]: 90.4 ± 6.2 AU

CN1c2ccccc2N=C(c2ccc(C(=O)O)cc2)c2cc3c(cc21)C(C)(C)CCC3(C)C [HX600]
CD169 (AU) [1, 6]: 110.5 ± 19.0 AU

O=C(O)/C=C/C(=O)O [L-fumarate]
CD169 (AU) [1, 7]: 101.5 ± 7.3 AU

C[C@H](O)C(=O)O [L-lactate]
CD169 (AU) ([1]; immX3 peptide 330 nM plus helper at 300 uM): 121.1 ± 5.6** AU

Cc1cc2c(cc1C1(c3ccc(C(=O)O)cn3)CC1)C(C)(C)CCC2(C)C [LG100268]
CD169 (AU) [1, 6]: 76.8 ± 11.9** AU

O=C(NCc1ccco1)c1ccc2c(c1)N(Cc1c(F)cccc1Cl)C(=O)CS2 [Peptide G10, G10]
CD169 (AU) [1, 6]: 143.4 ± 17.8** AU

CC(=O)S[C@@H]1CC2=CC(=O)CC[C@]2(C)[C@H]2CC[C@@]3(C)[C@@H](CC[C@@]34CCC(=O)O4)[C@H]12 [Spironolactone]
CD169 (AU) [1, 6]: 120.1 ± 10.5** AU

CC(=O)/C=C1\C(=O)N(C)c2ccccc21 [Supercinnamaldehyde]
CD169 (AU) [1, 6]: 159.7 ± 16.6** AU

CSCC[C@H](NC(=O)[C@H](CO)NC(=O)[C@@H](NC(=O)[C@H](CCC(=O)O)NC(=O)[C@H](CS)NC(=O)[C@H](CCC(N)=O)NC(=O)[C@H](CCCNC(=N)N)NC(=O)[C@H](CO)NC(=O)[C@H](Cc1c[nH]cn1)NC(=O)[C@H](Cc1ccc(O)cc1)NC(=O)[C@H](Cc1ccccc1)NC(=O)CNC(=O)[C@H](CC(N)=O)NC(=O)[C@@H](N)CCCCN)[C@@H](C)O)C(=O)N[C@@H](CC(=O)O)C(=O)NCC(=O)N[C@@H](CCC(=O)O)C(=O)N[C@@H](C)C(=O)NCC(=O)N[C@@H](CC(C)C)C(=O)N[C@@H](CS)C(=O)N[C@@H](Cc1c[nH]c2ccccc12)C(=O)O [imm1] (H-KNGFYHSRQCETSMDGEAGLCW-OH)
CD169+ (AU) [2]: 3.1 ± 2.2 AU
Binding to Phosphatidylinositol [3]: —
Binding to PtdIns(3,4,5)P [PIP3] [3]: —
Binding to PtdIns(4)P [PIP1] [3]: —
Binding to PtdIns(4,5)P [PIP2] [3]: —

CC(C)[C@H](NC(=O)[C@H](Cc1ccccc1)NC(=O)[C@H](Cc1c[nH]c2ccccc12)NC(=O)[C@H](CS)NC(=O)[C@H](Cc1ccccc1)NC(=O)CNC(=O)[C@H](CCCNC(=N)N)NC(=O)[C@H](CCCCN)NC(=O)[C@H](CCCNC(=N)N)NC(=O)CNC(=O)[C@H](CCCCN)NC(=O)[C@H](CO)NC(=O)[C@@H]1CCCN1C(=O)[C@H](CCCNC(=N)N)NC(=O)[C@H](CS)NC(=O)[C@H](CCC(N)=O)NC(=O)[C@H](CCCCN)NC(=O)[C@H](CCCCN)NC(=O)[C@H](CCCCN)NC(=O)[C@H](Cc1ccc(O)cc1)NC(=O)[C@H](Cc1ccccc1)NC(=O)CNC(=O)[C@H](CCCCN)NC(=O)[C@@H](N)CCCCN)C(=O)N[C@@H](CO)C(=O)O [immX3FVS] (H-KKGFYKKKQCRPSKGRKRGFCWFVS-OH)
CD169+ (AU) [2]: 109.4 ± 4.5 AU
CCL22 [2]: 251.3 ± 5.8 pg/mL

GM-CSF
CD169 (AU) [1, 8]: 147.0 ± 15.3** AU

HP-B-cyclodextrin
CD169 (AU) [1, 7]: 121.1 ± 4.6** AU

Heparin
CD169 (AU) [1, 9]: 34.1 ± 2.9** AU

Holotransferrin [Holotransferrin (Tf)]
CD169 (AU) ([1]; immX3 peptide 330 nM plus helper at 0.8 ug/ml): 126.8 ± 9.3** AU

Hyaluronan [Hyaluronan(HMW-HA)]
CD169 (AU) ([1]; immX3 peptide 330 nM plus helper at 0.6 ug/ml): 110.5 ± 10.2 AU

KKGFYKKKQCRPSKGRKRGFCW(dA)VD (KKGFYKKKQCRPSKGRKRGFCW[dA]VD; cysteine pairing not given here) [immX3dAVD]
CD169+ (AU) [2]: 104.3 ± 6.1 AU
CCL22 [2]: 247.3 ± 16.1 pg/mL

Leptin
CD169 (AU) [1, 9]: 103.3 ± 11.6 AU

NGLLKIKKGFYKKKQCRPSKGRKRGFCWAVD [immX3K4e + 1]
CD169+ (AU) [2]: 128.4 ± 1.4 AU
Creatine Kinase Act. [4]: 178.4 ± 7.6** units per milliliter

B1: CSF1 (protein, UniProt P09603 33-554, looked up)
Macrophage colony-stimulating …: EEVSEYCSHMIGSGHLQSLQRLIDSQMETSCQITFEFVDQEQLKDPVCYLKKAFLLVQDIMEDTMRFRDNTPNAIAIVQLQELSLRLKSCFTKDYEEHDKACVRTFYETPLQLLEKVKNVFNETKNLLDKDWNIFSKNCNNSFAECSSQDVVTKPDCNCLYPKAIPSSDPASVSPHQPLAPSMAPVAGLTWEDSEGTEGSSLLPGEQPLHTVDPGSAKQRPPRSTCQSFEPPETPVVKDSTIGGSPQPRPSVGAFNPGMEDILDSAMGTNWVPEEASGEASEIPVPQGTELSPSRPGGGSMQTEPARPSNFLSASSPLPASAKGQQPADVTGTALPRVGPVRPTGQDWNHTPQKTDHPSALLRDPPEPGSPRISSLRPQGLSNPSTLSAQPQLSRSHSSGSVLPLGELEGRRSTRDRRSPAEPEGGPASEGAARPLPRFNSVPLTDTGHERQSEGSFSPQLQESVFHLLVPSVILVLLAVGGLLFYRWRRRSHQEPQRADSPLEQPEGSPLTQDDRQVELPV
notes: Growth factor class
CD169 (AU) [1, 8]: 108.0 ± 32.3 AU
